Data on two molecules can be found in US9067920B2, “Compounds useful for inhibiting Chk1” (Eli Lilly and Company, priority 2010, dated 2015).

Assay [1] deals with HT-29 colon tumor xenograft. Description: HT-29 tumor xenograft model, oral administration of Chk1 inhibitor. It is filed as in vivo, nude mice. The settings on record: HT29, gemcitabine 40 mpk ip alone. As to the method: (§1) The ability of Chk1 inhibitors to potentiate tumor killing by DNA damaging agents can be determined in vivo using the Calu-6 lung and HT-29 colon tumor xenograft efficacy models. Calu-6 lung cancer cells are cultured in growth media (MEM with Earle's Balanced Salt Solution with L-glutamine supplemented with 10% (v/v) heat inactivated FBS, 1×MEM non-essential amino acids, 1× sodium pyruvate) and HT-29 colon cancer cells (ATCC) are cultured in growth media, (McCoy's 5A medium supplemented with 10% FBS) and expanded.
(§2) Cells are harvested and washed twice with phosphate buffered saline and 5×10^6 cells (HT-29) or 1×10^6 a cells (Calu-6) in growth media (without serum) are mixed with equal volume of BD Matrigel™ matrix, then injected subcutaneously into the flank of nude mice (CD-1 nu/nu).
(§3) At about day 16 after implant (150-200 mm^3), gemcitabine is formulated fresh in saline daily and administered to animals by intraperitoneal route at 40 mg/kg dose. Twenty four hours later animals are administered Chk1 compound, in 0.2% Tween-80/0.5% methylcellulose by the oral route MD. After three days of rest, dosing was repeated for three additional cycles (Q5Dx4 with the compound of Example 3 offset+24 hours). Tumor growth inhibition (TGI) is calculated as described in the previous paragraph. Compounds within the scope of the invention are tested in this assay run substantially as above.

The subject of assay [2] is HT-29 colon carcinoma cells. Nature of the assay: ECtfs (two-fold sensitization) assay, gemcitabine potentiation, MTS. Format: cell-based. Particulars: Homo sapiens, HT-29 cells. As to the method: An inhibitor of Chk1 can potentiate the anti-proliferative activity of gemcitabine (or other cytotoxics) through abrogation of the intra-S phase checkpoint, resulting in sustained and increased DNA damage. The capacity for continued tumor cell proliferation after DNA damage can be analyzed by determining the ability of cells to replicate their DNA. […] In this assay, cells are treated with a dilution series of gemcitabine, and then 22 h later with the compound of Example 3, After an additional 44 h, the relative cell number is assessed by a MTS (3-(4,5-dimethylthiazol-2-yl)-5-(3-carboxymethoxyphenyl)-2-(4-sulfophenyl)-2H-tetrazolium) dye reduction assay. The ECtfs parameter is a measure of the concentration of a Chk1 inhibitor necessary to reduce by half the (1190 concentration of gemcitabine, measured in this assay in the absence of Chk1 inhibition. HT-29 cells (obtained from ATCC), are grown in RPMI 1640 plus 10% (v/v) heat inactivated FBS, The cells are plated at 2.5×10^3 per well, in a volume of 100 μL on 96-well tissue culture plates and incubated for 24 h. Gemcitabine dilutions are prepared at 6× concentrations in McCoy's 5A medium (modified) (1×) and added to wells at 20 μper well. Gemcitabine dilutions were set up with the highest final concentration of gemcitabine being 1.0 μM and dilutions made by three-fold steps to 0.5 nM.
Chk1 Inhibitor is prepared by dilutions in DMSO to 4000× final concentration, and then diluted 666-fold into McCoy's medium to generate 6× stocks. Chk1 inhibitor dilutions proceed by 2.5-fold steps starting at 25 nM down to 0.3 nM. Twenty-two hours 1.0 after gemcitabine addition, Chk1, inhibitor is added in a volume of 24 μL to wells containing 120 μL of medium plus gemcitabine. Each gemcitabine dilution receives a single Chk1 inhibitor dilution. Control wells received DMSO, gemcitabine, or Chk1 inhibitor alone. Forty-four hours after addition of Chk1 inhibitor, 30 μL of CellTiter 96® AQueous assay reagent, is added to each well and held at room temperature for 1 hour and 45 minutes. Absorbance is read on a SpectraMax 250 (Molecular Devices) spectrophotometer at 490 nm. Data from the SpectraMax spectrophotometer are analyzed with GraphPad Prism 4.0. First, an averaged no cell control absorbance is subtracted from all other values in the matrix of data from each plate. Next, duplicate data points are averaged. Data are normalized for each Chk1 inhibitor concentration, with 0% cell number set as corrected A490=0, and 100% cell number set as the 0 nM gemcitabine mean value. […] Gemcitabine concentrations are converted to log concentrations, and normalized cell number values are converted to percent inhibition (percent inhibition=1.00-normalized value). Transformed data are plotted, and a non-linear regression is run to estimate an IC50 value for gemcitabine at each Chk1 inhibitor concentration. The nonlinear regression is calculated allowing the slope to vary, and without constraints for the top or bottom of the dose-response curves. The ECtfs value is calculated as follows: GI50 values for gemcitabine for each Chk1 inhibitor concentration are determined, plotted, and the concentration of Chk1 inhibitor necessary to decrease the gemcitabine alone GI50 by two-fold is determined by interpolation.
Compounds within the scope of the invention are tested in this assay run substantially as above. For example, the compound of Example 3 is tested and found to have an ECtfs value of 1.0 nM (SE=0.1, n=3). […]

Assay [3] has as its system Calu-6 lung tumor xenograft. Description: Calu-6 tumor xenograft model, subcutaneous administration of Chk1 inhibitor. Format: in vivo, nude mice. The settings on record: Calu 6, gemcitabine 60 mpk ip alone. The method, then:
as §1, §2
(§4) At about day 16 after implant ([…]), gemcitabine is formulated fresh in saline daily and administered to animals by intraperitoneal route at 60 mg/kg dose. Twenty four hours later animals are administered the compound of Example 3, in 0.2% Tween-80/0.5% methylcellulose subcutaneously BID. After […], dosing is repeated for three additional cycles (Q4Dx4 with the compound of Example 3 offset+24 hours), Tumor growth inhibition (TGI) is calculated as the percent reduction in mean tumor size of a compound treated group from the mean tumor size of the vehicle-treated control group. Compounds within the scope of the invention are tested in this assay run substantially as above.

For assay [4], the system named is HT-29 colon tumor xenograft. Nature of the assay: HT-29 tumor xenograft model, subcutaneous administration of Chk1 inhibitor. Format: in vivo, nude mice. The settings on record: HT29, gemcitabine 60 mpk ip alone. As to the method: as §1, §2, §4
Assay [5] concerns Calu-6 lung tumor xenograft. Description: Calu-6 tumor xenograft model, oral administration of Chk1 inhibitor. Format: in vivo, nude mice. The settings on record: Calu6, gemcitabine 40 mpk ip alone. The method, then:
as §1, §2, §3

In assay [6] the test system is HeLa cells. Nature of the assay: Doxorubicin-induced G2M checkpoint abrogation HeLa cell-based Acumen assay (pHH3). The settings on record: 125 nM doxorubicin, 7 h compound. The method, then: An inhibitor of Chk1 will disable the G2M DNA damage checkpoint in p53-minus tumor cells treated with the topoisomerase II inhibitor, doxorubicin. A measurement of G2M checkpoint abrogation is the phosphorylation of histone H3 on serine 10 that occurs after cells traverse the G2M checkpoint and enter mitosis. The following high content imaging assay can be used to measure the phosphorylation histone H3 in cells. HeLa cells are cultured in MEM Media supplemented with 10% (v/v) FBS and plated at 2000 cells per well in poly D-lysine coated clear bottom black plates, 100 μL volume per well. Plates are then incubated in a cell culture incubator for 18-24 h (37° C., 5% CO2 and 95% relative humidity), Following the initial incubation, 20 μL of MEM Media plus 10% FBS containing […] doxorubicin are added to the appropriate wells of the plates resulting in a final concentration of 125 nM. The plates are returned to the incubator for 24 h, sufficient to arrest the cells at the G2M checkpoint. The next day the cells are treated 1.0 with compounds. Compounds are solubilized at […] in 100% DMSO and then diluted to a 10× stock starting at 50 μM in MEM plus 4% (v/v) DMSO. Subsequently, serial dilutions of the compounds (1:2) are prepared over a 50 μM to 0.39 μM range. Thirteen μL of compound stock is added to the appropriate wells in the plate to produce a final DMSO concentration of 0.4% and a final compound concentration range between 5 and 0.039 μM. […] Plates are scanned with ACUMEN EXPLORER™ Laser-scanning fluorescence microplate cytometers using 488 nm excitation (TTP LABTECH LTC) to measure pHH3 and DNA content including 2N, and 4N, The pHH3 positive cells are identified by mean intensity at 519 nm from Alexa 488. […] The final readout for each population is determined by normalizing to the % of total cells producing a final assay output of % pHH3, % 2N, and % 4N. 100% activity is then determined by treating cells with the maximum concentration of an inhibitor control compound at 100 nM to determine the final % activity of each compound. […]

Assay [7] has as its target recombinant Chk2 protein kinase (Homo sapiens, UniProt O96017). Description: Chk2 biochemical assay (CHK2/substrate peptide filter binding). The settings on record: 60 μM ATP, 1.4 nM Chk2 enzyme. The method, then: The effect of compounds on Chk2 biochemical activity can be determined using a CHK2/substrate peptide filter binding assay. In this assay, a synthetic peptide based on the amino acid sequence residues 206-225 of Cdc25C, is used as a phospho-acceptor substrate for recombinant Chk2 protein kinase. Using γ-^33P-ATP as the phospho-donor substrate, Chk2 transfers the radioactive γ-^33phosphate group to the synthetic peptide. The reaction is measured by capturing the peptide substrate on a cation exchange paper filter plate and scintillation counting of emitted beta particles.
The kinase reactions (40 μL reaction volumes) are performed in 96-well V-bottom polystyrene plates. Reactions are initiated with the addition of Chk2 enzyme. […]
Following Chk2 enzyme addition, the reactions are incubated at room temperature for 90 min, and then terminated with the addition of 140 μL of phosphoric acid. […] After sitting for 4 h at room temperature, the radioactivity in the plate is measured using a MicroBeta Trilux microplate scintillation counter (Perkin Elmer).
For IC50 determination, the percent inhibition for each concentration is calculated using the […] from controls run on each plate. […] Absolute IC50 values are calculated from the resulting curve. […]

pEC50, pIC50: −log10 of the molar value. Structures can show the parent of a compound that is named as a salt.

Chain of recombinant Chk2 protein kinase (O96017 whole entry, the tested form may be a part): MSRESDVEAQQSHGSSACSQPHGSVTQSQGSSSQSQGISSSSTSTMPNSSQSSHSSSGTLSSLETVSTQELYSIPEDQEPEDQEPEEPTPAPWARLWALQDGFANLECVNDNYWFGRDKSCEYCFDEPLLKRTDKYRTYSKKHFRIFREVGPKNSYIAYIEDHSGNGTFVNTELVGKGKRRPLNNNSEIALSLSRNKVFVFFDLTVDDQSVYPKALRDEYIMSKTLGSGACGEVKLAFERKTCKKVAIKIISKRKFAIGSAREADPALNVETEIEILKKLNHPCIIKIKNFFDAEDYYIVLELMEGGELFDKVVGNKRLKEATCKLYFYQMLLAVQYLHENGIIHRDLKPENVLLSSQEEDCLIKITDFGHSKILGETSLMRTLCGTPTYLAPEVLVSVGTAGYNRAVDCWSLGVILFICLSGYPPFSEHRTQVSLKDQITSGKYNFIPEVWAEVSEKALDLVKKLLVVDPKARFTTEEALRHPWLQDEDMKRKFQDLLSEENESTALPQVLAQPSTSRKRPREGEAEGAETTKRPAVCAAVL

Turning to `Nc1ccn([C@@H]2O[C@H](CO)[C@@H](O)C2(F)F)c(=O)n1` [Gemcitabine, gemcitabine, reference compound], in assay [1], the “% TGI at day 50” value was 25%. The pIC50 (commonly the IC50 on a negative log10 scale, so that one unit is a factor of ten) in assay [2] ([Example 3] 0 nM) is 7.66. In assay [2] (gemcitabine alone), the pEC50 – broadly, the negative decadic logarithm of the EC50, by convention in mol/L – is 7.66. Moreover, the “% TGI at day 47” value in assay [3] was −41%. In addition, the “% TGI at day 38” value in assay [4] came out at 11%. Further, the “% TGI at day 37” value in assay [5] amounted to 32%.
Molecule `COc1nc(C)ccc1-c1cc(Nc2cncc(O[C@@H]3CCCNC3)n2)[nH]n1` [Example 2, (R)-[5-(2-Methoxy-6-mcethyl-pyridin-3-yl)-2H-pyrazol-3-yl]-[6-(piperidin-3-yloxy)-pyrazin-2-yl]-amine methane sulfonic acid salt] showed a pEC50 in assay [6] of 7.48. The pIC50 in assay [7] was 7.92.
